Measurements published in US12492173B2, “Herbicidal substituted N-tetrazolyl aryl carboxamides” (Bayer Aktiengesellschaft, priority 2019, dated 2025).

Legend:
Format in all cases: in vivo
Avena fatua = experiment: Post-emergence herbicidal action, AVEFA; design: key: % herbicidal action vs untreated; 100 = plants died, 0 = like control
Outline: (§1)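 Foliar application at the one-leaf stage of greenhouse-grown plants in sandy loam; compound applied as WP or EC in 600–800 l/ha water containing 0.2% wetting agent. Scores are visual percentages (0% like control, 100% plants died) taken after roughly 3 weeks.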

Echinochloa crus-galli = experiment: Pre-emergence herbicidal action, ECHCG; design: key to Herbicidal action against ECHCG: % activity: 100 = plants have died, 0 = like control plants; details: for herbicidal activity ECHCG: dosage 320 g/ha, scored visually after 3 weeks vs untreated controls (100% = plants have died)
Outline: (§2)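 Herbicidal activity is expressed in percent, scored by eye after a 3-week greenhouse period, with 0% matching untreated plants and 100% meaning death. Compounds, as wettable powders or emulsion concentrates, are applied pre-emergence to the covering soil.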

Viola tricolor = experiment: Pre-emergence herbicidal action, VIOTR; design: key to Herbicidal action against VIOTR: % activity: 100 = plants have died, 0 = like control plants; details: for herbicidal activity VIOTR: dosage 320 g/ha, scored visually after 3 weeks vs untreated controls (100% = plants have died)
Outline: as §2

Alopecurus myosuroides = experiment: Post-emergence herbicidal action, ALOMY; design: key: % herbicidal action vs untreated; 100 = plants died, 0 = like control
Outline: as §1

Setaria viridis = experiment: Post-emergence herbicidal action, SETVI; design: key: % herbicidal action vs untreated; 100 = plants died, 0 = like control
Outline: as §1

Veronica persica = experiment: Post-emergence herbicidal action, VERPE; design: key: % herbicidal action vs untreated; 100 = plants died, 0 = like control
Outline: as §1

[1] = comparative experiment, post-emergence, 5 g of a.i./ha
[2] = comparative experiment, 20 g of a.i./ha

CCCn1nnnc1NC(=O)c1ccc(C(F)(F)F)c(CSCC)c1Cl [Example 3-299]
herbicidal action AVEFA (Avena fatua; Dosage 80 g/ha): 80 | herbicidal activity ECHCG (Echinochloa crus-galli): 100% | herbicidal activity VIOTR (Viola tricolor): 100% | herbicidal action ALOMY (Alopecurus myosuroides; Dosage 80 g/ha): 80 | herbicidal action SETVI (Setaria viridis; Dosage 80 g/ha): 90 | herbicidal action VERPE (Veronica persica; Dosage 80 g/ha): 100

CCn1nnnc1NC(=O)c1ccc(C)c(CSC)c1Cl [Example 2-287]
herbicidal activity ECHCG (Echinochloa crus-galli): 100% | herbicidal activity VIOTR (Viola tricolor): 90% | herbicidal action ALOMY (Alopecurus myosuroides; Dosage 80 g/ha): 100 | herbicidal action SETVI (Setaria viridis; Dosage 80 g/ha): 90 | herbicidal action VERPE (Veronica persica; Dosage 80 g/ha): 80

CCn1nnnc1NC(=O)c1ccc(C(F)(F)F)c(CSC)c1SC [Example 2-161]
herbicidal action AVEFA (Avena fatua; post-emergence, dosage 80 g/ha): 90% | herbicidal activity ECHCG (Echinochloa crus-galli): 100% | herbicidal activity VIOTR (Viola tricolor): 100% | herbicidal action ALOMY (Alopecurus myosuroides; post-emergence, dosage 80 g/ha): 80% | herbicidal action SETVI (Setaria viridis; post-emergence, dosage 80 g/ha): 100% | herbicidal action VERPE (Veronica persica; post-emergence, dosage 80 g/ha): 100%

CCCn1nnnc1NC(=O)c1ccc(C(F)(F)F)c(C[S+](C)[O-])c1Cl (centres unmarked) [Example 3-297]
herbicidal action AVEFA (Avena fatua; post-emergence, dosage 80 g/ha): 100% | herbicidal activity ECHCG (Echinochloa crus-galli): 100% | herbicidal activity VIOTR (Viola tricolor): 100% | herbicidal action ALOMY (Alopecurus myosuroides; post-emergence, dosage 80 g/ha): 90% | herbicidal action SETVI (Setaria viridis; post-emergence, dosage 80 g/ha): 80% | herbicidal action VERPE (Veronica persica; post-emergence, dosage 80 g/ha): 100%

CCCn1nnnc1NC(=O)c1ccc(C(F)(F)F)c(CSC)c1Br [Example 3-380]
herbicidal action AVEFA (Avena fatua; Dosage 80 g/ha): 100 | herbicidal activity ECHCG (Echinochloa crus-galli): 100% | herbicidal activity VIOTR (Viola tricolor): 100% | herbicidal action ALOMY (Alopecurus myosuroides; Dosage 80 g/ha): 80 | herbicidal action SETVI (Setaria viridis; Dosage 80 g/ha): 90 | herbicidal action VERPE (Veronica persica; Dosage 80 g/ha): 80

Cn1nnnc1NC(=O)c1ccc(C(F)(F)F)c(CS(C)(=O)=O)c1Cl [Example 1-298]
Herbicidal action against AVEFA (Avena fatua; [1]): 60 | herbicidal action AVEFA (Avena fatua; post-emergence, dosage 80 g/ha): 100% | herbicidal activity ECHCG (Echinochloa crus-galli): 100% | herbicidal activity VIOTR (Viola tricolor): 100% | Herbicidal action against ALOMY (Alopecurus myosuroides; [1]): 70 | herbicidal action ALOMY (Alopecurus myosuroides; post-emergence, dosage 80 g/ha): 100% | herbicidal action SETVI (Setaria viridis; post-emergence, dosage 80 g/ha): 100% | Herbicidal action against VERPE (Veronica persica; [1]): 90 | herbicidal action VERPE (Veronica persica; post-emergence, dosage 80 g/ha): 100%

Cc1ccc(C(=O)Nc2nnnn2C)c(Cl)c1CS(C)(=O)=O [Example 1-289]
herbicidal activity ECHCG (Echinochloa crus-galli): 90% | herbicidal activity VIOTR (Viola tricolor): 90% | herbicidal action ALOMY (Alopecurus myosuroides; Dosage 80 g/ha): 80 | herbicidal action SETVI (Setaria viridis; Dosage 80 g/ha): 90 | herbicidal action VERPE (Veronica persica; Dosage 80 g/ha): 100

CCn1nnnc1NC(=O)c1ccc(C(F)(F)F)c(CS(C)(=O)=O)c1SC [Example 2-163]
herbicidal action AVEFA (Avena fatua; Dosage 80 g/ha): 100 | herbicidal activity ECHCG (Echinochloa crus-galli): 100% | herbicidal activity VIOTR (Viola tricolor): 100% | herbicidal action ALOMY (Alopecurus myosuroides; Dosage 80 g/ha): 90 | herbicidal action SETVI (Setaria viridis; Dosage 80 g/ha): 90 | herbicidal action VERPE (Veronica persica; Dosage 80 g/ha): 100

Cn1nnnc1NC(=O)c1ccc(C(F)(F)F)c(C[S+](C)[O-])c1Br (centres unmarked) [Example 1-381]
herbicidal action AVEFA (Avena fatua; post-emergence, dosage 80 g/ha): 100% | Herbicidal action against ECHCG (Echinochloa crus-galli; [2]): 90 | herbicidal activity ECHCG (Echinochloa crus-galli): 100% | Herbicidal action against VIOTR (Viola tricolor; [2]): 90 | herbicidal activity VIOTR (Viola tricolor): 100% | herbicidal action ALOMY (Alopecurus myosuroides; post-emergence, dosage 80 g/ha): 80% | herbicidal action SETVI (Setaria viridis; post-emergence, dosage 80 g/ha): 100% | herbicidal action VERPE (Veronica persica; post-emergence, dosage 80 g/ha): 100%

CCCn1nnnc1NC(=O)c1ccc(C(F)(F)F)c(CSC)c1OC [Example 3-134]
herbicidal action AVEFA (Avena fatua; Dosage 80 g/ha): 90 | herbicidal activity ECHCG (Echinochloa crus-galli): 100% | herbicidal activity VIOTR (Viola tricolor): 100% | herbicidal action SETVI (Setaria viridis; Dosage 80 g/ha): 100 | herbicidal action VERPE (Veronica persica; Dosage 80 g/ha): 100

CSCc1c(C(F)(F)F)ccc(C(=O)Nc2nnnn2C)c1SC [Example 1-161]
herbicidal action AVEFA (Avena fatua; Dosage 80 g/ha): 100 | herbicidal activity ECHCG (Echinochloa crus-galli): 100% | herbicidal activity VIOTR (Viola tricolor): 100% | herbicidal action ALOMY (Alopecurus myosuroides; Dosage 80 g/ha): 90 | herbicidal action SETVI (Setaria viridis; Dosage 80 g/ha): 100 | herbicidal action VERPE (Veronica persica; Dosage 80 g/ha): 100

CCn1nnnc1NC(=O)c1ccc(C(F)(F)F)c(CS(C)(=O)=O)c1Br [Example 2-382]
herbicidal activity ECHCG (Echinochloa crus-galli): 100% | herbicidal activity VIOTR (Viola tricolor): 100% | herbicidal action ALOMY (Alopecurus myosuroides; Dosage 80 g/ha): 80 | herbicidal action SETVI (Setaria viridis; Dosage 80 g/ha): 90 | herbicidal action VERPE (Veronica persica; Dosage 80 g/ha): 100

Cn1nnnc1NC(=O)c1ccc(C(F)(F)F)c(CS(C)(=O)=O)c1Br [Example 1-382, 2-bromo-3-[(methylsulfonyl)methyl]-N-(1-methyl-1H-tetrazol-5-yl)-4-(trifluoromethyl)benzamide]
herbicidal action AVEFA (Avena fatua; Dosage 80 g/ha): 100 | herbicidal activity ECHCG (Echinochloa crus-galli): 100% | herbicidal activity VIOTR (Viola tricolor): 100% | herbicidal action SETVI (Setaria viridis; Dosage 80 g/ha): 90 | herbicidal action VERPE (Veronica persica; Dosage 80 g/ha): 100

CCCn1nnnc1NC(=O)c1ccc(C(F)F)c(CSC)c1Cl [Example 3-320]
herbicidal action AVEFA (Avena fatua; Dosage 80 g/ha): 90 | herbicidal activity ECHCG (Echinochloa crus-galli): 100% | herbicidal activity VIOTR (Viola tricolor): 100% | herbicidal action ALOMY (Alopecurus myosuroides; Dosage 80 g/ha): 80 | herbicidal action SETVI (Setaria viridis; Dosage 80 g/ha): 100 | herbicidal action VERPE (Veronica persica; Dosage 80 g/ha): 100

Cn1nnnc1NC(=O)c1ccc(Cl)c(CS(C)(=O)=O)c1Cl [Example 1-561]
herbicidal action AVEFA (Avena fatua; Dosage 80 g/ha): 90 | herbicidal activity ECHCG (Echinochloa crus-galli): 100% | herbicidal activity VIOTR (Viola tricolor): 100% | herbicidal action SETVI (Setaria viridis; Dosage 80 g/ha): 100 | herbicidal action VERPE (Veronica persica; Dosage 80 g/ha): 100

CCn1nnnc1NC(=O)c1ccc(C(F)(F)F)c(C[S+](C)[O-])c1Br (centres unmarked) [Example 2-381]
herbicidal action AVEFA (Avena fatua; post-emergence, dosage 80 g/ha): 100% | herbicidal activity ECHCG (Echinochloa crus-galli): 100% | herbicidal activity VIOTR (Viola tricolor): 100% | herbicidal action ALOMY (Alopecurus myosuroides; post-emergence, dosage 80 g/ha): 80% | herbicidal action SETVI (Setaria viridis; post-emergence, dosage 80 g/ha): 100% | herbicidal action VERPE (Veronica persica; post-emergence, dosage 80 g/ha): 100%

CCS(=O)(=O)Cc1c(C(F)(F)F)ccc(C(=O)Nc2nnnn2C)c1Cl [Example 1-301]
herbicidal action AVEFA (Avena fatua; Dosage 80 g/ha): 100 | herbicidal activity ECHCG (Echinochloa crus-galli): 100% | herbicidal activity VIOTR (Viola tricolor): 100% | herbicidal action ALOMY (Alopecurus myosuroides; Dosage 80 g/ha): 80 | herbicidal action SETVI (Setaria viridis; Dosage 80 g/ha): 90 | herbicidal action VERPE (Veronica persica; Dosage 80 g/ha): 100

CSCc1c(C(F)(F)F)ccc(C(=O)Nc2nnnn2C)c1F [Example 1-242]
herbicidal action AVEFA (Avena fatua; Dosage 80 g/ha): 80 | herbicidal activity ECHCG (Echinochloa crus-galli): 100% | herbicidal activity VIOTR (Viola tricolor): 100% | herbicidal action SETVI (Setaria viridis; Dosage 80 g/ha): 90 | herbicidal action VERPE (Veronica persica; Dosage 80 g/ha): 100

CCCn1nnnc1NC(=O)c1ccc(C(F)(F)F)c(CSC)c1Cl [Example 3-296]
herbicidal action AVEFA (Avena fatua; Dosage 80 g/ha): 90 | herbicidal activity ECHCG (Echinochloa crus-galli): 100% | herbicidal activity VIOTR (Viola tricolor): 100% | herbicidal action ALOMY (Alopecurus myosuroides; Dosage 80 g/ha): 80 | herbicidal action SETVI (Setaria viridis; Dosage 80 g/ha): 90 | herbicidal action VERPE (Veronica persica; Dosage 80 g/ha): 100

COc1c(C(=O)Nc2nnnn2C)ccc(C(F)(F)F)c1CSC [Example 1-134]
herbicidal action AVEFA (Avena fatua; Dosage 80 g/ha): 90 | herbicidal activity ECHCG (Echinochloa crus-galli): 100% | herbicidal activity VIOTR (Viola tricolor): 100% | herbicidal action SETVI (Setaria viridis; Dosage 80 g/ha): 100 | Herbicidal action against SETVI (Setaria viridis; post-emergence, dosage 80 g/ha): 100 | herbicidal action VERPE (Veronica persica; Dosage 80 g/ha): 100 | Herbicidal action against VERPE (Veronica persica; [1]): 100 | Herbicidal action against VERPE (Veronica persica; post-emergence, dosage 80 g/ha): 100

CSCc1c(C(F)(F)F)ccc(C(=O)Nc2nnnn2C)c1Br [Example 1-380]
herbicidal action AVEFA (Avena fatua; post-emergence, dosage 80 g/ha): 100% | herbicidal activity ECHCG (Echinochloa crus-galli): 100% | herbicidal activity VIOTR (Viola tricolor): 100% | herbicidal action ALOMY (Alopecurus myosuroides; post-emergence, dosage 80 g/ha): 90% | herbicidal action SETVI (Setaria viridis; post-emergence, dosage 80 g/ha): 90% | herbicidal action VERPE (Veronica persica; post-emergence, dosage 80 g/ha): 100%

CCCn1nnnc1NC(=O)c1ccc(C(F)(F)F)c(CSCC)c1Br [Example 3-383]
herbicidal action AVEFA (Avena fatua; Dosage 80 g/ha): 90 | herbicidal activity ECHCG (Echinochloa crus-galli): 100% | herbicidal activity VIOTR (Viola tricolor): 100% | herbicidal action ALOMY (Alopecurus myosuroides; Dosage 80 g/ha): 80 | herbicidal action SETVI (Setaria viridis; Dosage 80 g/ha): 90 | herbicidal action VERPE (Veronica persica; Dosage 80 g/ha): 100

CCCn1nnnc1NC(=O)c1ccc(C(F)(F)F)c(CS(C)(=O)=O)c1OC [Example 3-136]
herbicidal activity ECHCG (Echinochloa crus-galli): 100% | herbicidal activity VIOTR (Viola tricolor): 100% | herbicidal action ALOMY (Alopecurus myosuroides; Dosage 80 g/ha): 90 | herbicidal action SETVI (Setaria viridis; Dosage 80 g/ha): 100 | herbicidal action VERPE (Veronica persica; Dosage 80 g/ha): 100
